Data from patent US11098039B2, “Benzodiazepine product with activity on the central nervous and vascular systems” (UNIVERSIDAD DE LA HABANA, priority 2016, dated 2021).
“Also recorded” adds a separate entry of the source.

How the values were obtained:
OF-1 mice = assay: Memory loss induced by beta amyloid 25-35 peptide oligomers (in vivo); details: JM-20 administered 7 days after beta amyloid administration; 10 and 30 mg/kg orally for 10 days; Aβ 100 pmol i.c.v.
Experimental: For the different studies JM-20 was suspended in carboxymethyl cellulose (CMC) 0.05% and administered orally. Scopolamine bromide was dissolved in the 0.9% saline solution and administered intraperitoneally (1 mg/kg, 4 mL/Kg of weight). Aluminum chloride was dissolved in common drinking water for the experimental subjects and administered orally in a 500 mg/Kg peso dose, in chronic form for one month and while behavioral studies were conducted. Beta amyloid peptides (25-35) were oligomerized and made soluble according to the manufacturer's norms and administered via intracerebroventricular means at 100 pmols in 5 uL, into the right cerebral hemisphere.
In vivo experiments corresponding to the scopolamine and aluminum model used Wistar rats (males, 230-260 g), while in vivo experiments corresponding to the beta amyloid model used OF-1 mice (males, 25-30 g). All the animals came from the National Laboratory Animal Production Center (CENPALAB, Mayabeque, Cuba) and after their arrival they underwent adaptation to laboratory conditions for 7 days. […]
Subsequently we conducted in vivo studies on OF-1 mice. We assessed the effect of JM-20 on memory loss induced by beta amyloid oligomers administered 7 days after the intracerebroventricular administration of Aβ (100 pmols) during 10 days, orally in 10 and 30 mg/kg weight doses. […]

male Wistar rats [1] = assay: Cylinder test after unilateral 6-OHDA lesion of the substantia nigra pars compacta; format: in vivo; details: 6-OHDA damage, after 7 days of treatment
Experimental: (§1) Male adult Wistar rats were used, weighing between 200 and 250 grams at the start of the experiment, coming from the National Laboratory Animal Production Center (CENPALAB), Havana, Cuba. The animals were kept at the Center for the Research and Development of Medicines (CIDEM) in plastic translucent boxes at an average temperature of 23° C. (22±2° C.), with food and water supplies ad libitum and 12-hour periods of light and dark.
JM-20 was administered in 3 different doses: 10, 20 and 40 mg/Kg, 24 hours after inducing damage and on a daily basis for 7 days. The compound was prepared in carboxymethylcellulose (CMC) at 0.05%, intragastrically with a cannula. There were 5 experimentation groups: Group I (vehicle/saline with ascorbic acid, n=6), Group II (animals affected with 6-OHDA, n=8), Group III (animals affected with 6-OHDA and co-treated with 10 mg/Kg JM-20, n=8), Group IV (animals affected with 6-OHDA and co-treated with 20 mg/Kg JM-20, n=8) and Group V (animals affected with 6-OHDA and co-treated with 40 mg/Kg JM-20 n=8). All behavioral studies were run at 7 days.
For the purpose of proceeding to unilateral dopaminergic denervation of the striate body (right hemisphere) the rats were anesthetized with Chloral Hydrate [0.4 g/kg weight, i.p., Merck (Darmstadt, Germany)] and placed into a frame designed for stereotactic surgery (Stoelting Instruments, USA.), where they were injected in the right substantia nigra pars compacta with saline solution neurotoxin 6-OHDA-HBr (8 μg/3 μL, also containing 0.2 mg/ml of ascorbic acid as an antioxidant) (Pavón Fuentes, Nancy (2007) Efecto de la inactivación de los receptores dopaminérgicos D2 y de la manipulación del núcleo subtalámico sobre la conducta motora en modelos de hemiparkinsonismo en roedores. Doctor en Ciencias de una Especialidad, Universidad de Ciencias Médicas de La Habana). Coordinates were calculated taking Bregma as a point of reference in accordance with the Paxinos and Watson Atlas [Paxinos, G. and Watson, C., The rat brain in stereotaxic coordenates. 2nd the Academic Press. New York, 1986], referred to in Table 1. […]

male Wistar rats [2] = assay: Exploratory Activity Test (vertical exploration) after unilateral 6-OHDA lesion; format: in vivo; details: 6-OHDA damage, after 7 days of treatment, statistically different at 40 mg/Kg versus untreated injured animals
Experimental: as §1
JM-20 was administered in 3 different doses: 10, 20 and 40 mg/Kg, 24 hours after inducing damage and on a daily basis for 7 days. The compound was prepared in carboxymethylcellulose (CMC) at 0.05%, intragastrically with a cannula. […]
In order to assess the vertical exploratory activity of animals we used the Exploratory Activity Test; the animal is placed in a clear Plexiglas cubicle, 41×41×33 (h) cm, (UGO BASILE, MultipleActivityCage Cat. No. 47420. Data output is managed by 52050-04 Data Acquisition Software Package (Windows® based). The cubicle is supported on a robust base made of black Plexiglas that has 4 vertical steel bars with steel grooves so that the horizontal/vertical detection systems are correctly affixed. The sensors are IR light emission systems capable of registering animal movements by shapes, or rather vertical exploration. Data is monitored on a computer. […]

CCI rats = assay: Histology of sciatic nerve (Wallerian degeneration) in chronic constriction injury (CCI) model; format: in vivo; details: JM-20 20 mg/Kg p.o., repeated doses for 7 days starting Day 7 post-CCI, 14 days after surgery, H/E and luxol fast blue
Source text: We studied the effect of JM-20 on the chronic constriction of the sciatic nerve model (CCI), an NP model (Bennett M I, Rayment C, Hjermstad M, Aass N, Caraceni A, Kaasa S. Prevalence and aetiology of neuropathic pain in cancer patients: A systematic review. Pain 2012; 153:359-365) Results are presented in FIG. 19-23.
A, B and C show the longitudinal section of the sciatic nerve 5 mm distal to the lesion on CCI Sham rats, CCI treated with JM-20 and treated with vehicle respectively (H/E coloration). We can observe the increase in cellularity in CCI animals relatively compared with sham operated animals as the result of the proliferation of Schawann cells and the infiltration of macrophages and the loss of an orderly alignment of axons associated to their myelin sheathes as compared to the sham-CCI. The arrow indicates one of the many digestion chambers of Schawann cells containing a myelin ovoid (reddish oval mass). D, E, F show sections from the same animals but they are colored by the luxol fast blue (LFB) technique, a specific technique for myelin tincture.

rats = assay: 5% formalin test (tonic pain), Phase II; format: in vivo; details: Phase II (15-45 min), flumazenil pre-treatment study
Experimental: We studied the effect of JM-20 (10, 20, 40 mg/Kg, p.o) on behaviors related to pain in a tonic pain model (5% formalin test) in rats. (Dubuisson D, Dennis S G. The formalin test: a quantitative study of the analgesic effects of morphine, meperidine and brain-stem stimulation in rats and cats. Pain 1977; 4:161-174).
Each column represents the reaction time of 6-10 animals per group as the mean±EEM, * P<0.05, ***P<0.001 represents the statistical differences between treated and control groups (only vehicle), ****P<0.05 represents statistical differences between groups treated with diazepam in the presence or absence of flumazenil, 1p<0.05 represents statistical differences between groups treated with JM-20 in the presence or absence of flumazenyl.

## CCOC(=O)C1=C(C)NC2=C(C=Nc3ccccc3N2)C1c1ccccc1[N+](=O)[O-] (stereo not shown) [JM-20, 3-etoxicarbonil-2-methyl-4-(2-nitrofeenil)-4,11-dihydro-1H-pirido[2,3-b][1,5] benzodiacepine]
OF-1 mice
  memory loss induced by beta amyloid 25-35 peptide oligomers: reverts memory loss
Male Wistar rats [1]; JM-20 40 and 20 mg/Kg
  use of the paw contralateral to the damage: increased use of the paw contralateral to the damage; also recorded: increased use of contralateral leg
Male Wistar rats [1]; both doses of JM-20 (40 and 20 mg/Kg), normal values
  use of the ipsilateral paw: ~50%
Male Wistar rats [1]; versus injured animals without treatment
  % of asymmetry (cylinder test), motor damage: diminished motor damage; also recorded: decrease in motor damage
Male Wistar rats [2]
  vertical exploration: increased their vertical exploration
CCI rats
  histological changes induced by CCI (Wallerian degeneration): nerve fiber disorganization, cell number, myelin sheath degradation: reduced disorganization of the nerve fibers induced by CCI; also recorded: Reduction in CCI-induced nerve fiber disruption and cell count increase and myelin sheath degradation
rats
  effect on Phase II of the 5% formalin test: antihypernociceptive effect
